According to ChEMBL document CHEMBL4138170, “Synthesis and biological evaluation of novel alkylated polyamine analogues as potential anticancer agents” (Eur J Med Chem, 2018):

What was measured:
[1] = tested on: HepG2; assay: Antiproliferative activity against human HepG2 cells after 48 hrs by MTT assay; type: functional, cell-based; conditions: HepG2, 48 h
[2] = tested on: SMMC-7721; assay: Antiproliferative activity against human SMMC7721 cells after 48 hrs by MTT assay; type: functional, cell-based; conditions: SMMC-7721, 48 h
[3] = tested on: HCT-116; assay: Antiproliferative activity against human HCT116 cells after 48 hrs by MTT assay; type: functional, cell-based; conditions: HCT-116, 48 h
[4] = tested on: K562; assay: Antiproliferative activity against human K562 cells after 48 hrs by MTT assay; type: functional, cell-based; conditions: K562, 48 h
[5] = tested on: H22; assay: Antitumor activity against mouse H22 cells implanted in Swiss mouse assessed as inhibition of lung metastasis at 5 mg/kg/day, iv administered via tail vein for 7 days relative to control; type: functional; conditions: 168 h
[6] = tested on: H22; assay: Antitumor activity against mouse H22 cells implanted in Swiss mouse assessed as tumor growth inhibition at 5 mg/kg/day, iv administered via tail vein for 7 days relative to control; type: functional; conditions: 168 h, read-out: TGI

SMILES | IC50 [1] [µM] | IC50 [2] [µM] | IC50 [3] [µM] | IC50 [4] [µM] | inhibition in vivo at 5 mg/kg/day [5] [%] | inhibition in vivo at 5 mg/kg/day [6] [%]
CCNCCCNCCCNCCCN1C(=O)c2cccc3cccc(c23)C1=O | 6.77 | 7.71 | 6.73 | 6.08 | – | –
CCCNCCCNCCCCNCCCN1C(=O)c2cccc3cccc(c23)C1=O | 7.66 | 6.6 | 5.2 | 7.71 | – | –
O=C1c2cccc3cccc(c23)C(=O)N1CCCNCCCCNCCCNC1CCCCC1 | 25.4 | 29.9 | 18.3 | 17.2 | – | –
CCCNCCCNCCCNCCCN1C(=O)c2cccc3cccc(c23)C1=O | 9.98 | 11.2 | 7.96 | 10.2 | – | –
CCNCCCNCCCCNCCCN1C(=O)c2cccc3cccc(c23)C1=O | 5.22 | 11 | 5.94 | 14.8 | – | –
CN(C)CCN1C(=O)c2cccc3cc(N)cc(c23)C1=O [AMONAFIDE] | – | – | 6.86 | 10.1 | 41.2 | 45.1
